From patent publication US6693126B2, “Dihydroxyphenyl derivatives for hepatoprotection and treatment of liver diseases” (Choongwae Pharm. Co., Ltd., priority 2000, dated 2004)

Legend:
[1] = tested on: Liver Injuries caused by D-galactosamine in Rats; test: Inhibitory effect against liver injuries caused by D-galactosamine in rats; type: in vivo, Rats (SD, male); conditions: D-galactosamine i.p., serum 24 h
From the text: The hepatoprotective effect of the compound of formula (1) was also identified by D-galactosamine model(see, Koji Hase et al., Biol. Pharm. Bull., 20, 4, 381-385, 1997; Jun-ichi Nagakawa et al., J. Pharmacology and Experimental Therapeutics, 264, 1, 1992; Toxicology of the Liver, Raven Press, New York, 1985). The N-acyl galactosamine resulted from the excess administration of D-galactosamine acts as a substrate for UDP-galactosamine or UDP-N-acyl galactosamine. But, the inordinate synthesis of […] and UDP-hexosamine may inhibit the binding of UTP in the liver cells and biosynthsis of UDP-glucose and UDP-galactose, which finally causes the structural and functional changes of the liver cell membranes. Consequently, it results in sporadic necrosis and the increase of ALT and AST values in blood. Since the toxicity caused by D-galactosamine looks similar to the symptoms of viral hepatitis, D-galactosamine model is also used conventionally as a model for viral hepatitis.
(§1) The degree of liver damage in the experimental animals was determined by measuring ALT and AST values in blood(see, Biol. Pharm. Bull., 20, 4, 381-385, 1997; Toxicology and Applied Pharmacology, 95, 1-11, 1988), and the hepatoprotective activity was calculated based on the following formula(see, Planta Medica, 55, 127-132, 1989). At this time, the hepatoprotective activity can also be calculated based on the same formula by replacing ALT value with AST value. [formula]
The hepatoprotective effect of the compound of the present invention was identified according to a known procedure(see, Koji Hase et al., Biol. Pharm. Bull., 20, 4, 381-385, 1997), and the protocol may be described in brief as follows.
Rats(SD, male, 180˜200 g) as the test animal were allowed in a condition of temperature 22±1° C. and relative humidity 60±5%. Feed and water were provided with no restriction while light and darkness were changed at an interval of 12 hours.
The compound of the present invention was suspended in a solvent corn oil, and this suspension was administered in a dose of 2 ml/kg. Each group included 8 test animals, and the test compound was orally administered for once per animal. After 30 minutes from the administration of the test compound, D-galactosamine solution(concentration: 200 mg/ml) in physiological saline was intraperitoneally injected in a dose of 2 ml/kg. As the control compounds, silymarin and DDB were selected.
The test animals were provided with no feed and sufficient water for 24 hours from the administration of D-galactosamine. […] This blood was centrifuged to obtain sera. ALT and AST values in the sera were measured using blood chemistry analyzer(Vitalab, Selectra II, Merck). The statistical significance for the test result of each group was examined based on Student's t-test, and the result was recognized as having a statistical significance when its P value is less than 5%.

[2] = tested on: Liver Injuries caused by Thioacetamide in Mice; test: Inhibitory effect against liver injuries caused by thioacetamide in mice; type: in vivo, Mice (ICR, male); conditions: thioacetamide i.p., serum 24 h
From the text: The hepatoprotective effect of the compound of formula (1) was also identified by thioacetamide model(see, Masuda Yasusuke and Nakayama Nobue, Biochemical Pharmacology, 31, 17, 2713-2725, 1982; Liu Jie et al., Acta Pharmacologica Sinica, 16, 2, 97-102, 1995; Story D. L. et al., J. Tox. Environ. Health, 11, 483-501, 1983; Gomez-Lechon M. J. et al., Xenobiotica, 18, 6, 725-735, 1988) which is frequently used as an experimental model for liver injuries. This model has been established based on the phenomena that thioacetamide activated by P-450 S-oxidation inordinately increases the influx of calcium ion(Ca^++) into the liver cells, which in turn activates calcium ion-dependent phospholipase, protease and endonuclease, changes the cell frame through the calcium ion, exhausts ATP, and consequently destroys the liver cells. Thioacetamide also damages ureogenesis pathway in liver, and the metabolite of thioacetamide inhibits the transfer of RNA and makes the liver cell membranes unstable. A series of these activities results in the destruction of the liver cells, which in turn causes the increase of ALT and AST values in blood and also causes histologically the centrilobular necrosis.
as §1
The hepatoprotective effect of the compound of the present invention was identified according to a known procedure(see, Landon, E. J. et al., Biochemical Pharmacology, 35, 4, 697-705, 1986), and the protocol may be described in brief as follows.
Mice(ICR, male, 27˜35 g) as the test animal were allowed in a condition of temperature 22±1° C. and relative humidity 60±5%. Feed and water were provided with no restriction while light and darkness were changed at an interval of 12 hours.
The compound of the present invention was suspended in a solvent corn oil, and this suspension was administered in a dose of 10 ml/kg. Each group included 8 test animals, and the test compound was orally administered once per animal. After 1 hour from the administration of the test compound, thioacetamide solution(concentration: 90 mg/ml) in physiological saline was intraperitoneally injected in a dose of 1 ml/kg. As the control compounds, silymarin and DDB were selected.
The test animals were provided with no feed and sufficient water for 24 hours from the administration of thioacetamide. […] This blood was centrifuged to obtain sera. ALT and AST values in the sera were measured using blood chemistry analyzer(Vitalab, Selectra II, Merck). The statistical significance for the test result of each group was examined based on Student's t-test, and the result was recognized as having a statistical significance when its P value is less than 5%.

Structure (SMILES)	Inhibitory Effect against Liver Injuries (%) ALT ([1]; dose 5.6 mg/kg p.o. once) [%]	Inhibitory Effect against Liver Injuries(%) AST ([1]; dose 5.6 mg/kg p.o. once) [%]	Inhibitory Effect against Liver Injuries (%) ALT ([1]; dose 16.7 mg/kg p.o. once) [%]	Inhibitory Effect against Liver Injuries(%) AST ([1]; dose 16.7 mg/kg p.o. once) [%]	Inhibitory Effect against Liver Injuries (%) ALT ([1]; dose 50 mg/kg p.o. once) [%]	Inhibitory Effect against Liver Injuries(%) AST ([1]; dose 50 mg/kg p.o. once) [%]	Inhibitory Effect against Liver Injuries (%) ALT ([2]; dose 16.7 mg/kg p.o. once) [%]	Inhibitory Effect against Liver Injuries(%) AST ([2]; dose 16.7 mg/kg p.o. once) [%]	Inhibitory Effect against Liver Injuries (%) ALT ([2]; dose 50 mg/kg p.o. once) [%]	Inhibitory Effect against Liver Injuries(%) AST ([2]; dose 50 mg/kg p.o. once) [%]
CC(=O)SCC(=O)c1ccc2c(c1)OCO2 [Compound 28, 1-(benzo[3,4-d]1,3-dioxolan-5-yl)-2-acetylthioethan-1-one]	42	48	51	55	52	55	76	89	87	94
O/N=C/c1ccc2c(c1)OCO2 [Compound 1]	–	–	5	–	12	–	–	–	99	–
c1csc(-c2ccc3c(c2)OCO3)n1 [Compound 21, 2-(benzo[3,4-d]1,3-dioxolan-5-yl)-1,3-thiazole]	27	29	32	29	56	46	54	37	98	98
COc1cc(/C=N/OCc2ccccn2)cc2c1OCO2 [Compound 13, 6-(2-((2-pyridyl)methoxy)-2-azavinyl)-4-methoxybenzo [d]1,3-dioxolane]	34	–	35	–	67	–	–	–	91	–
COC(=O)c1cc(OC)c2c(c1-c1c(C(=O)OC)cc(OC)c3c1OCO3)OCO2 [DDB, reference compound]	–	–	–	–	28	12	–	–	21	−4
